Measurements reported in the supplement of paper PMC10307832.

What was measured:
Assay in all cases: relative viability (nuclei count vs DMSO), 5 days (fraction); higher = more cells survive
201T = test system: 201T
In short: (§1)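 For relative viability, nuclei counts in treated wells were divided by those in vehicle wells. Lung cancer cell lines had been pin-tool dosed in 1536-well plates the day after seeding and cultured for 5 days, then fixed and stained in one step (final 0.05% Triton X-100, 1% formaldehyde, 1 ug/ml Hoechst) and imaged at 4×. Doses were one drug alone or a fixed anchor-drug dose plus five library-drug doses (not always all listed) in √10 steps, and values are duplicate-plate medians.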

PC-3 [JPC-3] = test system: PC-3 [JPC-3]
In short: as §1

NCI-H661 = test system: NCI-H661
In short: as §1

LCLC-97TM1 = test system: LCLC-97TM1
In short: as §1

H3255 = test system: H3255
In short: as §1

ABC-1 = test system: ABC-1
In short: as §1

A-427 = test system: A-427
In short: as §1

LC-2-ad = test system: LC-2-ad
In short: as §1

NCI-H1915 = test system: NCI-H1915
In short: as §1

NCI-H441 = test system: NCI-H441
In short: as §1

BEN = test system: BEN
In short: as §1

NCI-H596 = test system: NCI-H596
In short: as §1

NCI-H727 = test system: NCI-H727
In short: as §1

NCI-H1944 = test system: NCI-H1944
In short: as §1

NCI-H1650 = test system: NCI-H1650
In short: as §1

NCI-H520 = test system: NCI-H520
In short: as §1

NCI-H2087 = test system: NCI-H2087
In short: as §1

NCI-H650 = test system: NCI-H650
In short: as §1

NCI-H460 = test system: NCI-H460
In short: as §1

NCI-H2023 = test system: NCI-H2023
In short: as §1

NCI-H1651 = test system: NCI-H1651
In short: as §1

COc1nc(C)cnc1NS(=O)(=O)c1cccnc1-c1ccc(-c2nnco2)cc1 [Zibotentan] + Nc1ncn([C@H]2C[C@H](O)[C@@H](CO)O2)c(=O)n1 [Decitabine] (partner 2 µM) showed a relative viability (201T; first compound 0.08 µM) of 0.841, a relative viability (201T; first compound 0.253 µM) of 0.865 and a relative viability (201T; first compound 0.8 µM) of 0.855. The relative viability (201T; first compound 2.53 µM) was 0.919, the relative viability (PC-3 [JPC-3]; first compound 0.08 µM) was 0.836 and the relative viability (PC-3 [JPC-3]; first compound 0.253 µM) was 0.777. The relative viability (PC-3 [JPC-3]; first compound 0.8 µM) was 0.85, the relative viability (PC-3 [JPC-3]; first compound 2.53 µM) was 0.851 and the relative viability (NCI-H661; first compound 0.08 µM) was 0.557. The relative viability (NCI-H661; first compound 0.253 µM) was 0.529, the relative viability (NCI-H661; first compound 0.8 µM) was 0.57 and the relative viability (NCI-H661; first compound 2.53 µM) was 0.552. It also gave a relative viability (LCLC-97TM1; first compound 0.08 µM) of 0.26, a relative viability (LCLC-97TM1; first compound 0.253 µM) of 0.266 and a relative viability (LCLC-97TM1; first compound 0.8 µM) of 0.229. It also gave a relative viability (LCLC-97TM1; first compound 2.53 µM) of 0.246, a relative viability (H3255; first compound 0.08 µM) of 0.671 and a relative viability (H3255; first compound 0.253 µM) of 0.601. The relative viability (H3255; first compound 0.8 µM) was 0.586, the relative viability (H3255; first compound 2.53 µM) was 0.564 and the relative viability (ABC-1; first compound 0.08 µM) was 0.829. For the same compound, the relative viability (ABC-1; first compound 0.253 µM) was 1.12, the relative viability (ABC-1; first compound 0.8 µM) was 0.939 and the relative viability (ABC-1; first compound 2.53 µM) was 1.06. For the same compound, the relative viability (A-427; first compound 0.08 µM) was 0.537, the relative viability (A-427; first compound 0.253 µM) was 0.542 and the relative viability (A-427; first compound 0.8 µM) was 0.613. For the same compound, the relative viability (A-427; first compound 2.53 µM) was 0.582, the relative viability (LC-2-ad; first compound 0.08 µM) was 0.66 and the relative viability (LC-2-ad; first compound 0.253 µM) was 0.816. The relative viability (LC-2-ad; first compound 0.8 µM) was 0.718, the relative viability (LC-2-ad; first compound 2.53 µM) was 0.781 and the relative viability (NCI-H1915; first compound 0.08 µM) was 0.248. The relative viability (NCI-H1915; first compound 0.253 µM) was 0.262, the relative viability (NCI-H1915; first compound 0.8 µM) was 0.27 and the relative viability (NCI-H1915; first compound 2.53 µM) was 0.257. It also gave a relative viability (NCI-H441; first compound 0.08 µM) of 0.244, a relative viability (NCI-H441; first compound 0.253 µM) of 0.273 and a relative viability (NCI-H441; first compound 0.8 µM) of 0.264. It also gave a relative viability (NCI-H441; first compound 2.53 µM) of 0.225, a relative viability (BEN; first compound 0.08 µM) of 0.784 and a relative viability (BEN; first compound 0.253 µM) of 0.691. For the same compound, the relative viability (BEN; first compound 0.8 µM) was 0.734, the relative viability (BEN; first compound 2.53 µM) was 0.646 and the relative viability (NCI-H596; first compound 0.08 µM) was 0.992. For the same compound, the relative viability (NCI-H596; first compound 0.253 µM) was 0.911, the relative viability (NCI-H596; first compound 0.8 µM) was 1.06 and the relative viability (NCI-H596; first compound 2.53 µM) was 1.04. For the same compound, the relative viability (NCI-H727; first compound 0.08 µM) was 0.942, the relative viability (NCI-H727; first compound 0.253 µM) was 0.826 and the relative viability (NCI-H727; first compound 0.8 µM) was 0.908. For the same compound, the relative viability (NCI-H727; first compound 2.53 µM) was 0.874, the relative viability (NCI-H1944; first compound 0.08 µM) was 0.433 and the relative viability (NCI-H1944; first compound 0.253 µM) was 0.431. It also gave a relative viability (NCI-H1944; first compound 0.8 µM) of 0.425, a relative viability (NCI-H1944; first compound 2.53 µM) of 0.426 and a relative viability (NCI-H1650; first compound 0.08 µM) of 0.393. It also gave a relative viability (NCI-H1650; first compound 0.8 µM) of 0.626, a relative viability (NCI-H1650; first compound 2.53 µM) of 0.488 and a relative viability (NCI-H520; first compound 0.08 µM) of 0.62. For the same compound, the relative viability (NCI-H520; first compound 0.253 µM) was 0.441, the relative viability (NCI-H520; first compound 0.8 µM) was 0.514 and the relative viability (NCI-H520; first compound 2.53 µM) was 0.575. For the same compound, the relative viability (NCI-H2087; first compound 0.08 µM) was 0.342, the relative viability (NCI-H2087; first compound 0.253 µM) was 0.287 and the relative viability (NCI-H2087; first compound 0.8 µM) was 0.325. For the same compound, the relative viability (NCI-H2087; first compound 2.53 µM) was 0.331, the relative viability (NCI-H650; first compound 0.08 µM) was 0.298 and the relative viability (NCI-H650; first compound 0.253 µM) was 0.297. For the same compound, the relative viability (NCI-H650; first compound 0.8 µM) was 0.352, the relative viability (NCI-H650; first compound 2.53 µM) was 0.311 and the relative viability (NCI-H460; first compound 0.08 µM) was 0.444. For the same compound, the relative viability (NCI-H460; first compound 0.253 µM) was 0.287, the relative viability (NCI-H460; first compound 0.8 µM) was 0.464 and the relative viability (NCI-H460; first compound 2.53 µM) was 0.509. It also gave a relative viability (NCI-H2023; first compound 0.08 µM) of 0.245, a relative viability (NCI-H2023; first compound 0.253 µM) of 0.211 and a relative viability (NCI-H2023; first compound 0.8 µM) of 0.203. The relative viability (NCI-H2023; first compound 2.53 µM) was 0.214, the relative viability (NCI-H1651; first compound 0.08 µM) was 0.657 and the relative viability (NCI-H1651; first compound 0.253 µM) was 0.607. The relative viability (NCI-H1651; first compound 0.8 µM) was 0.567 and the relative viability (NCI-H1651; first compound 2.53 µM) was 0.516.
